For 23 compounds, melting point results are on record in US8183234B2, “Tricyclic guanidine derivatives as sodium-proton exchange inhibitors” (Piramal Life Sciences Limited, priority 2004, dated 2012).

Counter-ions that a name gives are not always drawn.

Compound `Cc1cc(C(=O)N=C(N)N)cc2c1Oc1c(Cl)cc(S(=O)(=O)NCc3cccnc3)cc1CS2(=O)=O` (as salt: mesylate) [Example 52, 4-Chloro-8-guanidinocarbonyl-6-methyl-10,10-dioxo-10,11-dihydro-5-oxa-10lambda*6*-thia-dibenzo[a,d]cycloheptene-2-sulfonic acid (pyridin-3-ylmethyl)-amide dimesylate] yielded a melting point of 271 to 273 °C. The result for `Cc1cc(C(=O)N=C(N)N)cc2c1Oc1c(Cl)cc(N3CCN(C4CC4)CC3=O)cc1CS2(=O)=O` (as salt: mesylate) [Example 58, N-[4-Chloro-2-(4-cyclopropyl-2-oxo-piperazin-1-yl)-6-methyl-10,10-dioxo-10,11-dihydro-5-oxa-10lambda*6*-thia-dibenzo[a,d]cycloheptene-8-carbonyl]-guanidine dimesylate] reads 195 to 196 °C; that for `Cc1cc(C(=O)N=C(N)N)cc2c1Oc1c(Cl)cc(NCCn3ccnc3)cc1CS2(=O)=O` (as salt: mesylate) [Example 64, N-[4-Chloro-2-(2-imidazol-1-yl-ethylamino)-6-methyl-10,10-dioxo-10,11-dihydro-5-oxa-10lambda*6*-thia-dibenzo[a,d]cycloheptene-8-carbonyl]-guanidine dimesylate], 243 to 244 °C. For `CCN(CCN1CCCC1)c1cc(Cl)c2c(c1)CS(=O)(=O)c1cc(C(=O)N=C(N)N)cc(C)c1O2` (as salt: mesylate) [Example 73, N-{4-Chloro-2-[ethyl-(2-pyrrolidin-1-yl-ethyl)-amino]-6-methyl-10,10-dioxo-10,11-dihydro-5-oxa-10lambda*6*-thia-dibenzo[a,d]cycloheptene-8-carbonyl}-guanidine dimesylate] the value was 258 to 260 °C; for `Cc1cc(C(=O)N=C(N)N)cc2c1Oc1c(Cl)cc(N3CCN(Cc4ccccc4)CC3)cc1CS2(=O)=O` (as salt: mesylate) [Example 118, N-[2-(4-Benzyl-piperazin-1-yl)-4-chloro-6-methyl-10,10-dioxo-10,11-dihydro-5-oxa-10lambda*6*-thia-dibenzo[a,d]cycloheptene-8-carbonyl]-guanidine dimesylate], 280 to 285 °C. For `Cc1cc(C(=O)N=C(N)N)cc2c1Oc1c(Cl)cc(CN)cc1CS2(=O)=O` (as salt: mesylate) [Example 198, N-(2-Aminomethyl-4-chloro-6-methyl-10,10-dioxo-10,11-dihydro-5-oxa-10lambda*6*-thia-dibenzo[a.d]cycloheptene-8-carbonyl)-guanidine trimesylate] the value was 242 to 244 °C; for `Cc1cc2c(cc1C(=O)N=C(N)N)S(=O)(=O)Cc1ccccc1O2` (as salt: sulfonic acid salt) [Example 27, N-(7-Methyl-10,10-dioxo-10,11-dihydro-5-oxa-10lambda*6*-thia-dibenzo[a,d]cycloheptene-8-carbonyl)-guanidine, methane sulfonic acid salt], 272 to 274 °C. As for `Cc1cc(C(=O)N=C(N)N)cc2c1Oc1c(cccc1C(C)C)CS2(=O)=O` (as salt: sulfonic acid salt) [Example 31, N-(4-Isopropyl-6-methyl-10,10-dioxo-10,11-dihydro-5-oxa-10lambda*6*-thia-dibenzo[a,d]cycloheptene-8-carbonyl)-guanidine, methane sulfonic acid salt], the melting point is 252 to 253 °C. With `Cc1cc(C(=O)N=C(N)N)cc2c1Oc1c(Cl)cc(N)cc1CS2(=O)=O` (as salt: sulfonic acid salt) [Example 35, N-(2-Amino-4-chloro-6-methyl-10,10-dioxo-10,11-dihydro-5-oxa-10lambda*6*-thia-dibenzo[a,d]cycloheptene-8-carbonyl)-guanidine, methane sulfonic acid salt], the melting point lay in the range of 190 to 192 °C. `NC(N)=NC(=O)c1cc(Cl)c2c(c1)S(=O)(=O)Cc1cccc(Cl)c1O2` (as salt: sulfonic acid salt) [Example 45, 4,6-Dichloro-10,10-dioxo-10,11-dihydro-5-oxa-10lambda*6*-thia-dibenzo[a,d]cycloheptene-8-carbonylguanidine, methane sulfonic acid salt] registered a melting point of 270 to 271 °C. In turn, `Cc1cc2c(cc1C(=O)N=C(N)N)S(=O)(=O)Cc1ccccc1N2` (as salt: sulfonic acid salt) [Example 183, N-(7-Methyl-10,10-dioxo-10,11-dihydro-5H-10lambda*6*-thia-5-aza-dibenzo[a.d]cycloheptene-8-carbonyl)-guanidine, methane sulfonic acid salt] returned a melting point of 292 to 294 °C. Turning to `CS(=O)(=O)O.N=C(N)NC(=O)c1ccc2c(c1)S(=O)(=O)Cc1cc(Cl)ccc1O2` [Example 3, N-(2-Chloro-10,10-dioxo-10,11-dihydro-5-oxa-10lambda*6*-thia-dibenzo[a,d]cycloheptene-8-carbonyl)-guanidine, methanesulfonic acid salt], the melting point lay in the range of 280 to 282 °C. For the compound `CS(=O)(=O)O.N=C(N)NC(=O)c1ccc2c(c1)S(=O)(=O)Cc1c(F)cccc1O2` [Example 6, N-(1-Fluoro-10,10-dioxo-10,11-dihydro-5-oxa-10lambda*6*-thia-dibenzo[a,d]cycloheptene-8-carbonyl)-guanidine, methanesulfonic acid salt], the melting point lay in the range of 231 to 232 °C. For `CC(C)c1cccc2c1Oc1ccc(C(=O)NC(=N)N)cc1S(=O)(=O)C2.CS(=O)(=O)O` [Example 8, N-(4-Isopropyl-10,10-dioxo-10,11-dihydro-5-oxa-10lambda*6*-thia-dibenzo[a,d]cycloheptene-8-carbonyl)-guanidine, methanesulfonic acid salt] the value was 220 to 222 °C; for `CS(=O)(=O)O.Cc1cc(C(=O)NC(=N)N)cc2c1Oc1c(Cl)cc(S(=O)(=O)Nc3nnc(C4CC4)s3)cc1CS2(=O)=O` [Example 51, 4-Chloro-8-guanidinocarbonyl-6-methyl-10,10-dioxo-10,11-dihydro-5-oxa-10lambda*6*-thia-dibenzo[a,d]cycloheptene-2-sulfonic acid (5-cyclopropyl-[1,3,4]thiadiazol-2-yl)-amide methane sulfonic acid salt], 221 to 222 °C; for `CS(=O)(=O)O.CS(=O)(=O)O.Cc1cc(C(=O)NC(=N)N)cc2c1Oc1c(Cl)cc(S(=O)(=O)N3CCN(C)CC3)cc1CS2(=O)=O` [Example 54, N-[4-Chloro-6-methyl-2-(4-methyl-piperazine-1-sulfonyl)-10,10-dioxo-10,11-dihydro-5-oxa-10lambda*6*-thia-dibenzo[a,d]cyclohepten-8-carbonyl]-guanidine dimesylate], 187 to 189 °C.

`CS(=O)(=O)O.Cc1cc(C(=O)NC(=N)N)cc2c1Oc1c(Cl)cc(S(=O)(=O)N3CCOCC3)cc1CS2(=O)=O` [Example 55, N-[4-chloro-6-methyl-2-(morpholine-4-sulfonyl)-10,10-dioxo-10,11-dihydro-5-oxa-10 lambda*6*-thia-dibenzo[a,d]cycloheptene-8-carbonyl]-guanidine methane sulfonic acid salt] returned a melting point of 292 to 293 °C. Take `CS(=O)(=O)O.CS(=O)(=O)O.Cc1cc(C(=O)NC(=N)N)cc2c1Oc1c(Cl)cc(N3CCN(C(C)C)CC3=O)cc1CS2(=O)=O` [Example 60, N-[4-Chloro-2-(4-isopropyl-2-oxo-piperazin-1-yl)-6-methyl-10,10-dioxo-10,11-dihydro-5-oxa-10lambda*6*-thia-dibenzo[a,d]cycloheptene-8-carbonyl]-guanidine dimesylate]: the melting point was 196 to 198 °C. As for `CS(=O)(=O)O.CS(=O)(=O)O.CS(=O)(=O)O.Cc1cc(C(=O)NC(=N)N)cc2c1Oc1c(Cl)cc(NCCN3CCN(C)CC3)cc1CS2(=O)=O` [Example 62, N-{4-Chloro-6-methyl-2-[2-(4-methylpiperazin-1-yl)-ethylamino]-10,10-dioxo-10,11-dihydro-5-oxa-10lambda*6*-thia-dibenzo[a,d]cycloheptene-8-carbonyl}-guanidine trimesylate], the melting point fell in the range of 184 to 186 °C. For `CCN(CCN1CCOCC1)c1cc(Cl)c2c(c1)CS(=O)(=O)c1cc(C(=O)NC(=N)N)cc(C)c1O2.CS(=O)(=O)O.CS(=O)(=O)O` [Example 67, N-{4-Chloro-2-[ethyl-(2-morpholin-4-yl-ethyl)-amino]-6-methyl-10,10-dioxo-10,11-dihydro-5-oxa-10lambda*6*-thia-dibenzo[a,d]cycloheptene-8-carbonyl}-guanidine dimesylate] the value was 248 to 250 °C; for `CC(=O)N(CCN1CCOCC1)c1cc(Cl)c2c(c1)CS(=O)(=O)c1cc(C(=O)NC(=N)N)cc(C)c1O2.CS(=O)(=O)O.CS(=O)(=O)O` [Example 68, N-(4-Chloro-8-guanidinocarbonyl-6-methyl-10,10-dioxo-10,11-dihydro-5-oxa-10lambda*6*-thia-dibenzo[a,d]cyclohepten-2-yl)-N-(2-morpholin-4-yl-ethyl)-acetamide dimesylate], 198 to 200 °C; for `COCC(=O)N(CCN1CCOCC1)c1cc(Cl)c2c(c1)CS(=O)(=O)c1cc(C(=O)NC(=N)N)cc(C)c1O2.CS(=O)(=O)O.CS(=O)(=O)O` [Example 69, N-(4-Chloro-8-guanidinocarbonyl-6-methyl-10,10-dioxo-10,11-dihydro-5-oxa-10lambda*6*-thia-dibenzo[a,d]cyclohepten-2-yl)-2-methoxy-N-(2-morpholin-4-yl-ethyl)-acetamide dimesylate], 168 to 169 °C. `CS(=O)(=O)O.CS(=O)(=O)O.CS(=O)(=O)O.Cc1cc(C(=O)NC(=N)N)cc2c1Oc1c(Cl)cc(NCCN3CCN(CCO)CC3)cc1CS2(=O)=O` [Example 70, N-(4-Chloro-2-{2-[4-(2-hydroxy-ethyl)-piperazin-1-yl]-ethylamino}-6-methyl-10,10-dioxo-10,11-dihydro-5-oxa-10lambda*6*-thia-dibenzo{a,d}cycloheptene-8-carbonyl)-guanidine trimesylate] showed a melting point of 218 to 220 °C.
